# Where a name gives a salt, the structure may show the parent alone.
# Tested on: E. coli strain LFP 527
# Assay: Mouse UTI model, pooled CFU results of Examples 7 and 8 (Example 9)
# Format: in vivo, Escherichia coli in mice (Mus musculus)
# Details: for # samples <LOD / Mean log CFU/g: ciprofloxacin IV 5 mg/kg; for Delta from LR: ciprofloxacin IV compared with intravenous LR
# Experimental: The crPhage cocktail was a mixture of phages p0033L-10 (ATCC No. PTA-126316), p004k-5 (ATCC No. PTA-126319), and p0071-16 (ATCC No. PTA-126320) at concentrations of 2×10^11 plaque forming units (PFU)/mL/phage (“high”), 2×10^9 PFU/mL/phage (“medium”), or 2×10^7 PFU/mL/phage (“low”). A 50 μl dose thus provided 1×10^10 PFU/phage (“high”), 1×10^8 PFU/phage (“medium”), or 1×10^6 PFU/phage (“low”). Lactated Ringer's (LR) solution served as a negative control and ciprofloxacin (Cipro) served as a positive control.
# Female C3H/HeN mice were infected with E. coli strain LFP 527 via intraurethral (IU) instillation. Beginning 48 hours after infection, a test article of phage cocktail containing p0033L-10, p004k-5, and p0071-16 was administered at time zero and every 12 hours for 48 hours (for a total of 5 doses). Phage cocktail with a range of phage concentrations (Table 16) or vehicle was delivered either intravenously (IV) or by IU instillation into the bladder. The phage cocktails were prepared using LR.
compound,measurement,setting,value
"O=C(O)c1cn(C2CC2)c2cc(N3CCNCC3)c(F)cc2c1=O [ciprofloxacin, Ciprofloxacin hydrochloride]",# samples <LOD,"Bladder, 54 hours",0
same,Mean log CFU/g,"Bladder, 54 hours",4.96 log CFU/g
same,Delta from LR,"Bladder, 54 hours",−1.55 (n.s.) log CFU/g
same,# samples <LOD,"Bladder, 102 hours",1
same,Mean log CFU/g,"Bladder, 102 hours",3.16 log CFU/g
same,Delta from LR,"Bladder, 102 hours",−2.23 (p = 0.0033) log CFU/g
same,# samples <LOD,"Kidney, 54 hours",0
same,Mean log CFU/g,"Kidney, 54 hours",3.47 log CFU/g
same,Delta from LR,"Kidney, 54 hours",−1.66 (n.s.) log CFU/g
same,# samples <LOD,"Kidney, 102 hours",3
same,Mean log CFU/g,"Kidney, 102 hours",2.03 log CFU/g
same,Delta from LR,"Kidney, 102 hours",−3.11 (p <0.0001) log CFU/g

# Reference: US20220411782A1, “PHAGE COMPOSITIONS COMPRISING CRISPR-CAS SYSTEMS AND METHODS OF USE THEREOF” (priority 2019, published 2022)
